This is an account of results in ChEMBL document CHEMBL4402543, “Bioisosteric Development of Multitarget Nonsteroidal Anti-Inflammatory Drug-Carbonic Anhydrases Inhibitor Hybrids for the Management of Rheumatoid Arthritis” (J Med Chem, 2020).

The nature of data set [1]: Stability in PBS. It counts as physicochemical. Conditions: buffer.
The nature of data set [2]: Half life in Sprague-Dawley rat plasma by LC-MS/MS analysis. It counts as ADME, cell-free.
Data set [3] in a line: Half life in human plasma by LC-MS/MS analysis. In kind it is ADME, cell-free.
The target of data set [4] is COX1 (Prostaglandin G/H synthase 1) (Homo sapiens, UniProt P23219). The data set is described as follows: Inhibition of COX1 in human platelet rich plasma in assessed as inhibition of ADP-induced platelet aggregation at 10 uM incubated for 5 mins by turbidimetry based Born's method relative to control.
COX1 (Prostaglandin G/H synthase 1), sequence (P23219 whole entry): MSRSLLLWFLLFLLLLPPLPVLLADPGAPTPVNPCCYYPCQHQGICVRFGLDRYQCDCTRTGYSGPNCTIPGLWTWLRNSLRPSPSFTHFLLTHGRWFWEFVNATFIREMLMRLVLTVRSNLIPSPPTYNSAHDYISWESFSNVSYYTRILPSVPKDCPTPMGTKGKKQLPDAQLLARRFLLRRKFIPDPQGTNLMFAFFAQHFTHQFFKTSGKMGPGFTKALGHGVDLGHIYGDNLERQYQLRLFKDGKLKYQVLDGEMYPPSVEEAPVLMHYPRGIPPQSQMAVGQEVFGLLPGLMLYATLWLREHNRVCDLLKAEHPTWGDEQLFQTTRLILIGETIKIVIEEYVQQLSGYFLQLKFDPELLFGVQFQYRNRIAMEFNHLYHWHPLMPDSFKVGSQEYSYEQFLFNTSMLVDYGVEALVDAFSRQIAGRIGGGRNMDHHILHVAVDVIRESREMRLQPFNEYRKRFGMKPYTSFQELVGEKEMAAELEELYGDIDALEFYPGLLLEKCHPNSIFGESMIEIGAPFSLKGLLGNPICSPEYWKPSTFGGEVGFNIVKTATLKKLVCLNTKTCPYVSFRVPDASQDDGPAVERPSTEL
In data set [5] the test system is Rattus norvegicus. Description: Antihyperalgesic activity in Sprague-Dawley rat model of Complete freund's adjuvant-induced arthritis assessed as increase in pain threshold of ipsilateral paw at 100 mg/kg, po starting from day 14 after CFA injection and measured at 15 mins by paw pressure test. In kind it is functional, organism-based.
The test system of data set [6] is Rattus norvegicus. Description: Antihyperalgesic activity in Sprague-Dawley rat model of Complete freund's adjuvant-induced arthritis assessed as reduction in difference between weight burdened on contralateral and ipsilateral paw at 30 mg/kg, po starting from day 14 after CFA injection and measured at 45 mins incapacitance test. It counts as functional, organism-based.

For data set [7], the system named is Rattus norvegicus. The data set is described as follows: Antihyperalgesic activity in Sprague-Dawley rat model of Complete freund's adjuvant-induced arthritis assessed as reduction in difference between weight burdened on contralateral and ipsilateral paw at 30 mg/kg, po starting from day 14 after CFA injection and measured at 30 mins incapacitance test. It counts as functional, organism-based.

Data set [8] has as its system Rattus norvegicus. Description: Antihyperalgesic activity in Sprague-Dawley rat model of Complete freund's adjuvant-induced arthritis assessed as increase in pain threshold of ipsilateral paw at 30 mg/kg, po starting from day 14 after CFA injection and measured at 15 to 30 mins by paw pressure test. It counts as functional, organism-based.
In data set [9] the test system is Rattus norvegicus. Description: Antihyperalgesic activity in Sprague-Dawley rat model of Complete freund's adjuvant-induced arthritis assessed as reduction in difference between weight burdened on contralateral and ipsilateral paw at 30 mg/kg, po starting from day 14 after CFA injection and measured at 15 mins incapacitance test. In kind it is functional, organism-based.

Data set [10] has as its system Rattus norvegicus. The data set is described as follows: Antihyperalgesic activity in Sprague-Dawley rat model of Complete freund's adjuvant-induced arthritis assessed as reduction in difference between weight burdened on contralateral and ipsilateral paw at 30 mg/kg, po starting from day 14 after CFA injection and measured at 15 to 30 mins incapacitance test. In kind it is functional, organism-based.

Data set [11] addresses Carbonic anhydrase 7 (Homo sapiens) (UniProt P43166).
Description: Inhibition of human CA7 pre-incubated for 6 hrs by stopped- flow CO2 hydrase assay method based Cheng-Prusoff equation analysis
The target in data set [12] is Carbonic anhydrase 2 (Homo sapiens) (UniProt P00918).
Description: Inhibition of human CA2 pre-incubated for 6 hrs by stopped- flow CO2 hydrase assay method based Cheng-Prusoff equation analysis
In data set [13] the target is Carbonic anhydrase 12 (Homo sapiens) (UniProt O43570).
Carbonic anhydrase 12 (Homo sapiens), sequence (O43570 whole entry): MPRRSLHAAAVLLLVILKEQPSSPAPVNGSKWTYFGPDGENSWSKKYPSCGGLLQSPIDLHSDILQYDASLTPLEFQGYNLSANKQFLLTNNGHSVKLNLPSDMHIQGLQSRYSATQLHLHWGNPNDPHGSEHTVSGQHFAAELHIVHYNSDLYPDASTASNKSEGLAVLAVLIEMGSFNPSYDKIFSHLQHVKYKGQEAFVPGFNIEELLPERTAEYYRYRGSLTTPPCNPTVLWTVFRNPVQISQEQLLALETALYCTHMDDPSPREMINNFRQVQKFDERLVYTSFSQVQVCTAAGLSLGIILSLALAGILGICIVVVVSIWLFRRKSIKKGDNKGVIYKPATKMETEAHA
Description: Inhibition of human CA12 pre-incubated for 6 hrs by stopped- flow CO2 hydrase assay method based Cheng-Prusoff equation analysis
Data set [14] deals with Carbonic anhydrase 1 (Homo sapiens) (UniProt P00915).
Carbonic anhydrase 1 (Homo sapiens), sequence (P00915 2-261 limits assumed): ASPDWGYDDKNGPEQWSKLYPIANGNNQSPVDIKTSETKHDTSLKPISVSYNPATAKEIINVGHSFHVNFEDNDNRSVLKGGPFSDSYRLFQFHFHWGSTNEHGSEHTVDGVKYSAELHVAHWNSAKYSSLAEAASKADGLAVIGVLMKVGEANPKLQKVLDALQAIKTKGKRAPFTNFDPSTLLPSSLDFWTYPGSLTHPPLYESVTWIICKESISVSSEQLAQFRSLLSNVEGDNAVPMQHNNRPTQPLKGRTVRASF
Description: Inhibition of human CA1 pre-incubated for 6 hrs by stopped- flow CO2 hydrase assay method based Cheng-Prusoff equation analysis
For data set [15], the target named is Carbonic anhydrase 4 (Homo sapiens) (UniProt P22748).
Carbonic anhydrase 4 (Homo sapiens), sequence (P22748 whole entry): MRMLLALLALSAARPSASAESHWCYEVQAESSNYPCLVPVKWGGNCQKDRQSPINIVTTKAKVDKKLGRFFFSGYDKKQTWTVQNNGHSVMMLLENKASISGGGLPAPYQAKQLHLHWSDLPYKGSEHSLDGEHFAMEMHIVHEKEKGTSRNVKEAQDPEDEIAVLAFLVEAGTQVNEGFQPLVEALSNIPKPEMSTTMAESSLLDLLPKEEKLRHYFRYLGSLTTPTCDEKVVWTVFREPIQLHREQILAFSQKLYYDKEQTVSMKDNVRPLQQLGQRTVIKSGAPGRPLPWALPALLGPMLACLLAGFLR
Description: Inhibition of human CA4 pre-incubated for 6 hrs by stopped- flow CO2 hydrase assay method based Cheng-Prusoff equation analysis
Data set [16] addresses Carbonic anhydrase 9 (Homo sapiens) (UniProt Q16790).
Description: Inhibition of human CA9 pre-incubated for 6 hrs by stopped- flow CO2 hydrase assay method based Cheng-Prusoff equation analysis
Data set [17] has as its target T1, Prostaglandin G/H synthase 2 (Mus musculus) (UniProt Q05769).
T1 sequence (whole entry): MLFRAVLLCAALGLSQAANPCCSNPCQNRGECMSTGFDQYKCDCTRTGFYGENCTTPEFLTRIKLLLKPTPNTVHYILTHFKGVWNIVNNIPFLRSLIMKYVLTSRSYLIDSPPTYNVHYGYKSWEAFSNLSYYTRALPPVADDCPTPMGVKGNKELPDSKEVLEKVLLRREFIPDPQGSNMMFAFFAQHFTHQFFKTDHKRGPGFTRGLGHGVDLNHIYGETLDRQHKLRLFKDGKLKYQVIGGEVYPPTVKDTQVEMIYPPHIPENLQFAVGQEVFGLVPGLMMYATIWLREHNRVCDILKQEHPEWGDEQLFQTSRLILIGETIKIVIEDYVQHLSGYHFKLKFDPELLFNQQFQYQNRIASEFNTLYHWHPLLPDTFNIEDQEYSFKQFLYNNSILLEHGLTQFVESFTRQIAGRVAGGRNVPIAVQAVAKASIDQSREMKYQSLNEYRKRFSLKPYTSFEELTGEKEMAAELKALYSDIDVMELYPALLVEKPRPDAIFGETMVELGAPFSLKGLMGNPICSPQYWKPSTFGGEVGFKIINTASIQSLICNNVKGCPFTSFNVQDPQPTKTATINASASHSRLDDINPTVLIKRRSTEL
Description: Inhibition of COX2 in mouse RAW264.7 cells assessed as reduction in LPS-induced inflammation by measuring reduction in PGE2 level at 100 uM treated 1 hr after LPS stimulation and measured after 18 hrs by ELISA relative to control. In kind it is cell-based. A general note: ELISA stands for enzyme-linked immunosorbent assay.

Data set [18] relates to Rattus norvegicus. Description: Antihyperalgesic activity in Sprague-Dawley rat model of Complete freund's adjuvant-induced arthritis assessed as increase in pain threshold of ipsilateral paw at 10 mg/kg, po starting from day 14 after CFA injection and measured at 0 to 60 mins by paw pressure test. It counts as functional, organism-based.
For data set [19], the target named is T1, Prostaglandin G/H synthase 2 (Mus musculus). The data set is described as follows: Inhibition of COX2 in mouse RAW264.7 cells assessed as reduction in LPS-induced inflammation by measuring reduction in PGE2 level at 1 uM treated 1 hr after LPS stimulation and measured after 18 hrs by ELISA relative to control. In kind it is cell-based.

Each structure is given as a SMILES string. Calls of active or inactive are those of the source. Some results are limits rather than exact numbers.

Carbonic anhydrase 7 (Homo sapiens), sequence (P43166 whole entry): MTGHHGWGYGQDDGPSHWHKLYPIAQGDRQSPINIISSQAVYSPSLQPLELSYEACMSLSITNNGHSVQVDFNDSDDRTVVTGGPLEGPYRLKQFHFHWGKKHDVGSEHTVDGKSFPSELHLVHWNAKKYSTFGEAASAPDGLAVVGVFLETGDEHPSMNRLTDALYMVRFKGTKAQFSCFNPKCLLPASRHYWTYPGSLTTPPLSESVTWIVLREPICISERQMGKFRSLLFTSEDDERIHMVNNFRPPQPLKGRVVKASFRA

By half-life is commonly meant the time needed for the level to fall by half in the phase considered. A lower half-life goes with rapid decline. Regarding `COc1ccc2c(c1)c(CC(=O)OCCOc1ccc3ccc(=O)oc3c1)c(C)n2C(=O)c1ccc(Cl)cc1`, the Stability result in data set [1] is listed as “Stable”. The half-life in [2] is 2 min; in [3], more than 240 min.

One may read the inhibition as the percentage by which the read-out fell short of the control. Take `O=C(O)Cc1ccccc1Nc1c(Cl)cccc1Cl` [DICLOFENAC]: the inhibition at 5 min, 10 µM in data set [4] is 15%.

Regarding `CC(C(=O)OCCOc1ccc2oc(=O)ccc2c1)c1ccc(-c2ccccc2)c(F)c1` (racemic), the Stability result in data set [1] is “Stable”. Further, the half-life in data set [2] was 1.3 min; in [3] it was more than 240 min.

For the compound `COc1ccc2c(c1)c(CC(=O)NCCOc1ccc3oc(=O)ccc3c1)c(C)n2C(=O)c1ccc(Cl)cc1`, the half-life in data set [2] and in data set [3] was more than 240 min throughout.

As to `COc1ccc2cc([C@H](C)C(=O)OCCOc3ccc4ccc(=O)oc4c3)ccc2c1`, in data set [1], the Stability entry is listed as “Stable”. In addition, the half-life in data set [2] is less than 1 min; in data set [3], more than 240 min.

Turning to `COc1ccc2c(c1)c(CC(=O)NCCOc1ccc3ccc(=O)oc3c1)c(C)n2C(=O)c1ccc(Cl)cc1`, the half-life in [2] and in data set [3] was more than 240 min each time.

For the compound `CC1=C(CC(=O)NCCOc2ccc3ccc(=O)oc3c2)c2cc(F)ccc2/C1=C\c1ccc([S+](C)[O-])cc1` (stereo not given), the half-life in data set [2] and in data set [3] was more than 240 min throughout.

As to `CC(C(=O)NCCOc1ccc2ccc(=O)oc2c1)c1ccc(-c2ccccc2)c(F)c1` (stereo not given), the half-life in data set [2] and in data set [3] was more than 240 min throughout.

Consider `CC1=C(CC(=O)OCCOc2ccc3oc(=O)ccc3c2)c2cc(F)ccc2/C1=C\c1ccc([S+](C)[O-])cc1` (stereo not given), for which the Stability entry in data set [1] is on record as “Stable”. For the same compound, the half-life in data set [2] is 5.5 min; in data set [3], more than 240 min.

`CC(C)Cc1ccc(C(C)C(=O)O)cc1` (stereo not given) [IBUPROFEN]: in the data set with Rattus norvegicus [5], the result was Active. Besides, the inhibition at 5 min, 10 µM in data set [4] was more than 60%.

In the case of `COc1ccc2c(c1)c(CC(=O)OCCOc1ccc3oc(=O)ccc3c1)c(C)n2C(=O)c1ccc(Cl)cc1`, the Stability result in data set [1] is recorded as “Stable”. Further, the results for the half-life in [2] and in [3] were 2.8 min and more than 240 min, respectively.

Regarding `CC(C(=O)O)c1cccc(C(=O)c2ccccc2)c1` (stereo not given) [KETOPROFEN], the result in the data set with Rattus norvegicus [6] and with Rattus norvegicus [7] was inactive. Besides, the outcome in the data set with Rattus norvegicus [8], in the data set on Rattus norvegicus [9] and in the data set on Rattus norvegicus [10] was Active. Also, in [4], the inhibition at 5 min, 10 µM was 25%.

In the case of `COc1ccc2cc([C@H](C)C(=O)NCCOc3ccc4ccc(=O)oc4c3)ccc2c1`, the half-life in [2] and in data set [3] was more than 240 min throughout.

With `O=C(Cc1ccccc1Nc1c(Cl)cccc1Cl)OCCOc1ccc2oc(=O)ccc2c1`, the Stability result in data set [1] is on record as “Stable”. Also, the half-life in data set [2] was less than 1 min; in data set [3], 32 min.

Take `CC(C(=O)NCCOc1ccc2ccc(=O)oc2c1)c1cccc(C(=O)c2ccccc2)c1` (stereo not given): the half-life in data set [2] and in [3] was more than 240 min in each case.

In the case of `CC(C(=O)NCCOc1ccc2oc(=O)ccc2c1)c1ccc(-c2ccccc2)c(F)c1` (stereo not given), the half-life in data set [2] and in [3] was more than 240 min in each case.

For `CC(C(=O)NCCOc1ccc2oc(=O)ccc2c1)c1cccc(C(=O)c2ccccc2)c1` (stereo not given), the half-life in data set [2] and in [3] was more than 240 min each time.

For orientation: Ki means a dissociation constant, usually derived from enzyme kinetics or from competition with a known ligand. A lower Ki goes with a stronger hold on the target. For the compound `CC(C)Cc1ccc(C(C)C(=O)OCCOc2ccc3ccc(=O)oc3c2)cc1` (racemic), the inhibition constant Ki in data set [11] was more than 10 µM; in data set [12], more than 10 µM; in data set [13] it was 5.3 nM; in [14], more than 10 µM; in data set [15], 6.5 nM; in data set [16], 3.9 nM. In data set [1], the Stability result was “Stable”. Besides, the half-life in [2] is 3.2 min; in [3] it was more than 240 min. Further, in data set [4], the inhibition at 5 min, 10 µM lay in the range of 5 to 30%.

`CC(C)Cc1ccc(C(C)C(=O)NCCOc2ccc3oc(=O)ccc3c2)cc1` (stereo not given): the half-life in data set [2] and in [3] was more than 240 min each time. In data set [4], the inhibition at 5 min, 10 µM is 5 to 30%.

`CC1=C(CC(=O)NCCOc2ccc3oc(=O)ccc3c2)c2cc(F)ccc2/C1=C\c1ccc([S+](C)[O-])cc1` (stereo not given): the half-life in data set [2] and in [3] was more than 240 min throughout.

In the case of `O=C(Cc1ccccc1Nc1c(Cl)cccc1Cl)NCCOc1ccc2oc(=O)ccc2c1`, the half-life in data set [2] and in [3] was more than 240 min in each case. Moreover, in data set [17], the inhibition came out at 75%. Moreover, the inhibition at 5 min, 10 µM in [4] lay in the range of 5 to 30%.

Turning to `CC(C)Cc1ccc(C(C)C(=O)OCCOc2ccc3oc(=O)ccc3c2)cc1` (racemic), the inhibition constant (Ki) in [11] was more than 10 µM; in data set [12], more than 10 µM; in data set [13], 459 nM; in data set [14], more than 10 µM; in data set [15], 3.6 nM; in [16], 25.3 nM. Also, the Stability entry in data set [1] is reported as “Stable”. Besides, the half-life in [2] is 3.5 min; in [3], more than 240 min. Also, the inhibition at 5 min, 10 µM in data set [4] was 5 to 30%.

For the compound `COc1ccc2cc([C@H](C)C(=O)NCCOc3ccc4oc(=O)ccc4c3)ccc2c1`, the half-life in [2] and in data set [3] was more than 240 min in each case.

With `O=C(Cc1ccccc1Nc1c(Cl)cccc1Cl)OCCOc1ccc2ccc(=O)oc2c1`, the Stability entry in data set [1] is recorded as “Stable”. Besides, the half-life in data set [2] is less than 1 min; in data set [3], 18 min.

On to `COc1ccc2cc([C@H](C)C(=O)OCCOc3ccc4oc(=O)ccc4c3)ccc2c1`, for which the Stability result in [1] is “Stable”. Also, the figures for the half-life in data set [2] and in data set [3] were 1.1 min and more than 240 min, respectively.

As for `CC1=C(CC(=O)OCCOc2ccc3ccc(=O)oc3c2)c2cc(F)ccc2/C1=C\c1ccc([S+](C)[O-])cc1` (stereo not given), the Stability result in data set [1] is reported as “Stable”. For the same compound, the half-life in [2] was 16.6 min; in [3] it was more than 240 min.

Regarding `O=C(Cc1ccccc1Nc1c(Cl)cccc1Cl)NCCOc1ccc2ccc(=O)oc2c1`, the half-life in data set [2] and in [3] was more than 240 min each time. For the same compound, the inhibition at 5 min, 10 µM in [4] was more than 15%.

Consider `CC(C(=O)OCCOc1ccc2ccc(=O)oc2c1)c1ccc(-c2ccccc2)c(F)c1` (racemic), for which, in [1], the Stability result is given as “Stable”. For the same compound, the results for the half-life in [2] and in data set [3] were 2.4 min and more than 240 min, respectively.

Turning to `CC(C)Cc1ccc(C(C)C(=O)NCCOc2ccc3ccc(=O)oc3c2)cc1` (stereo not given), the half-life in [2] and in [3] was more than 240 min in each case. Besides, the outcome with Rattus norvegicus [18] was Active. The inhibition entry in data set [17] and in data set [19] was “Active” in each case. The inhibition at 5 min, 10 µM in data set [4] fell in the range of 5 to 30%.
